Assay results as given in patent publication US8163718B2, “Nucleoside analogues containing phosphonate or phosphonamide groups” (Gilead Sciences, Inc., priority 2008, dated 2012).

system: HCT-15; assay: Cytostatic cell culture assay (GI50), SRB; assay type: cell-based; settings: Homo sapiens, HCT-15, 120 h; 5 days incubation
Description: (§1) The assay is based on quantification of cell counts by a colorimetric detection of the cell associated proteins. The assay relies on the ability of sulforhodamine B (SRB) to bind to protein components of cells that have been fixed to tissue-culture plates by trichloroacetic acid (TCA). SRB is a bright-pink aminoxanthene dye with two sulfonic groups that bind to basic amino-acid residues under mild acidic conditions, and dissociate under basic conditions. As the binding of SRB is stoichiometric, the amount of dye extracted from stained cells is directly proportional to the cell mass.
(§2) Cell lines: All cell lines were obtained from ATCC (Manassas, Va.). Cultivation media containing Glutamax, and trypsin were purchased from Invitrogen (Carlsbad, Calif.). Doxorubicin, Clofarabine, TCA and SRB were from Sigma-Aldrich (St. Louis, Mo.). Gemcitabine was obtained from Moravek Biochemicals (Brea, Calif.)
(§3) • 1. Trypsinize the sub-confluent cells, count them, and adjust the cell concentrations according to the cell counts listed in Table 1. • 2. Distribute the cells into the 96-well plates in 150 μL of media. Incubate the plates overnight in humidified CO2 incubator at 37° C. • 3. Fix one plate of each cell line with TCA. Discard the cultivation media from the plates by flicking them gently and add 100 ul cold 10% (vol/vol) TCA to each well. Incubate the plates at 4 degree refrigerator for 1 hour. Discard TCA from the plates by flicking them gently. Rinse plates four times in a washing basin containing tap water. Store the plates at room temperature. These plates represent cell counts on day zero. • 4. Prepare a set of medium solutions containing various concentrations of tested compounds by making 5-fold serial dilutions in 96-well plate. Add 50 μL of the diluted compounds per well. Include controls with untreated cells and cells treated with doxorubicin, clofarabine and gemcitabine. • 5. Incubate the plates for 5 days at 37° C. • 6. Fix the plates with TCA. Discard the cultivation media from the plates by flicking them gently and add 100 ul cold 10% (vol/vol) TCA to each well. Incubate the plates at 4 degree refrigerator for 1 hour. Discard TCA from the plates by flicking them gently. Rinse plates four times in a washing basin containing tap water. • 7. Remove excess water by tapping the plates face down, gently on a paper towel. Allow the plates to air-dry at room temperature. • 8. Add 100 ul of 0.057% SRB solution in 1% (vol/vol) acetic acid to each well of the plates fixed with TCA on day zero and five. Leave at room temperature for 30 minutes. • 9. Flick the plates gently to discard SRB. Rinse the plates four times with 1% (vol/vol) Acetic Acid. • 10. Store the plates at 37 degree incubator to facilitate faster drying. • 11. Once the plates are completely dry, add 200 ul of 10 mM Tris base solution (pH 10.5) to each well. Leave at room temperature for 30 minutes for SRB to solubilize. • 12. Measure the OD at 500 nm in a microplate reader • 13. Calculate the percentage of cell-growth inhibition using the next formula: % of control cell growth=100×(ODsample−mean ODday0)/(ODneg control−mean ODday0)
(§4) For GI50 determination, plot a dose-response curve between the compound concentration and percent of growth inhibition. GI50 values can be derived by fitting dose-response curves using sigmoidal dose response equation.

| GI50 | Structure (SMILES) |
| --- | --- |
| 8500 nM | Nc1nc(NC2CC2)c2ncn(CCOCP(=O)(N3CCC[C@H]3C(=O)OCc3ccccc3)N3CCC[C@H]3C(=O)OCc3ccccc3)c2n1 [Example 51] |
| 799 nM | CCCCOC(=O)[C@H](C)NP(=O)(COCCn1cnc2c(OCC)nc(N)nc21)N[C@@H](C)C(=O)OCCCC [Example 38] |
| 24000 nM | CCCOc1nc(N)nc2c1ncn2CCOCP(=O)(N[C@H](C)C(=O)OC)N[C@H](C)C(=O)OC [Example 18] |
| 1490 nM | CCCCOC(=O)[C@@H]1CCCN1P(=O)(COCCn1cnc2c(OCCC)nc(N)nc21)N1CCC[C@H]1C(=O)OCCCC [Example 25] |

| Structure (SMILES) | GI50 |
| --- | --- |
| CCCCOC(=O)[C@H](C)NP(=O)(COCCn1cnc2c(OCCC)nc(N)nc21)Oc1ccccc1 (single isomer, unassigned) [Example 52a] | 553 nM |

system: PC3; assay: Cytostatic cell culture assay (GI50), SRB; assay type: cell-based; settings: 5 days incubation
Description: as §1, §2, §3, §4

| Structure (SMILES) | GI50 |
| --- | --- |
| CCCCOC(=O)[C@H](C)NP(=O)(COCCn1cnc2c(OCCC)nc(N)nc21)Oc1ccccc1 (single isomer, unassigned) [Example 52a] | 8 nM |

same assay, conditions: Homo sapiens, PC-3, 120 h; 5 days incubation

| GI50 | Structure (SMILES) |
| --- | --- |
| 214 nM | Nc1nc(NC2CC2)c2ncn(CCOCP(=O)(N3CCC[C@H]3C(=O)OCc3ccccc3)N3CCC[C@H]3C(=O)OCc3ccccc3)c2n1 [Example 51] |
| 2 nM | CCCCOC(=O)[C@H](C)NP(=O)(COCCn1cnc2c(OCC)nc(N)nc21)N[C@@H](C)C(=O)OCCCC [Example 38] |
| 5400 nM | CCCOc1nc(N)nc2c1ncn2CCOCP(=O)(N[C@H](C)C(=O)OC)N[C@H](C)C(=O)OC [Example 18] |
| 16 nM | CCCCOC(=O)[C@@H]1CCCN1P(=O)(COCCn1cnc2c(OCCC)nc(N)nc21)N1CCC[C@H]1C(=O)OCCCC [Example 25] |

system: BT-549; assay: Cytostatic cell culture assay (GI50), SRB; assay type: cell-based; settings: Homo sapiens, BT-549, 120 h; 5 days incubation
Description: as §1, §2, §3, §4

| GI50 | Structure (SMILES) |
| --- | --- |
| 527 nM | Nc1nc(NC2CC2)c2ncn(CCOCP(=O)(N3CCC[C@H]3C(=O)OCc3ccccc3)N3CCC[C@H]3C(=O)OCc3ccccc3)c2n1 [Example 51] |
| 53 nM | CCCCOC(=O)[C@H](C)NP(=O)(COCCn1cnc2c(OCC)nc(N)nc21)N[C@@H](C)C(=O)OCCCC [Example 38] |
| 7600 nM | CCCOc1nc(N)nc2c1ncn2CCOCP(=O)(N[C@H](C)C(=O)OC)N[C@H](C)C(=O)OC [Example 18] |
| 15 nM | CCCCOC(=O)[C@@H]1CCCN1P(=O)(COCCn1cnc2c(OCCC)nc(N)nc21)N1CCC[C@H]1C(=O)OCCCC [Example 25] |

| Structure (SMILES) | GI50 |
| --- | --- |
| CCCCOC(=O)[C@H](C)NP(=O)(COCCn1cnc2c(OCCC)nc(N)nc21)Oc1ccccc1 (single isomer, unassigned) [Example 52a] | 105 nM |

system: NCI-H23; assay: Cytostatic cell culture assay (GI50), SRB; assay type: cell-based; settings: Homo sapiens, NCI-H23, 120 h; 5 days incubation
Description: as §1, §2, §3, §4

| GI50 | Structure (SMILES) |
| --- | --- |
| 263 nM | Nc1nc(NC2CC2)c2ncn(CCOCP(=O)(N3CCC[C@H]3C(=O)OCc3ccccc3)N3CCC[C@H]3C(=O)OCc3ccccc3)c2n1 [Example 51] |
| 2 nM | CCCCOC(=O)[C@H](C)NP(=O)(COCCn1cnc2c(OCC)nc(N)nc21)N[C@@H](C)C(=O)OCCCC [Example 38] |
| 2330 nM | CCCOc1nc(N)nc2c1ncn2CCOCP(=O)(N[C@H](C)C(=O)OC)N[C@H](C)C(=O)OC [Example 18] |
| 2 nM | CCCCOC(=O)[C@@H]1CCCN1P(=O)(COCCn1cnc2c(OCCC)nc(N)nc21)N1CCC[C@H]1C(=O)OCCCC [Example 25] |

| Structure (SMILES) | GI50 |
| --- | --- |
| CCCCOC(=O)[C@H](C)NP(=O)(COCCn1cnc2c(OCCC)nc(N)nc21)Oc1ccccc1 (single isomer, unassigned) [Example 52a] | 0.9 nM |

system: HCT-116; assay: Cytostatic cell culture assay (GI50), SRB; assay type: cell-based; settings: 5 days incubation
Description: as §1, §2, §3, §4

| Structure (SMILES) | GI50 |
| --- | --- |
| CCCCOC(=O)[C@H](C)NP(=O)(COCCn1cnc2c(OCCC)nc(N)nc21)Oc1ccccc1 (single isomer, unassigned) [Example 52a] | 43 nM |

same assay, conditions: Homo sapiens, HCT-116, 120 h; 5 days incubation

| GI50 | Structure (SMILES) |
| --- | --- |
| 850 nM | Nc1nc(NC2CC2)c2ncn(CCOCP(=O)(N3CCC[C@H]3C(=O)OCc3ccccc3)N3CCC[C@H]3C(=O)OCc3ccccc3)c2n1 [Example 51] |
| 12 nM | CCCCOC(=O)[C@H](C)NP(=O)(COCCn1cnc2c(OCC)nc(N)nc21)N[C@@H](C)C(=O)OCCCC [Example 38] |
| 9000 nM | CCCOc1nc(N)nc2c1ncn2CCOCP(=O)(N[C@H](C)C(=O)OC)N[C@H](C)C(=O)OC [Example 18] |
| 43 nM | CCCCOC(=O)[C@@H]1CCCN1P(=O)(COCCn1cnc2c(OCCC)nc(N)nc21)N1CCC[C@H]1C(=O)OCCCC [Example 25] |

system: A549; assay: Cytostatic cell culture assay (GI50), SRB; assay type: cell-based; settings: 5 days incubation
Description: as §1, §2, §3, §4

| Structure (SMILES) | GI50 |
| --- | --- |
| CCCCOC(=O)[C@H](C)NP(=O)(COCCn1cnc2c(OCCC)nc(N)nc21)Oc1ccccc1 (single isomer, unassigned) [Example 52a] | 48 nM |

same assay, conditions: Homo sapiens, A549, 120 h; 5 days incubation

| GI50 | Structure (SMILES) |
| --- | --- |
| 1670 nM | Nc1nc(NC2CC2)c2ncn(CCOCP(=O)(N3CCC[C@H]3C(=O)OCc3ccccc3)N3CCC[C@H]3C(=O)OCc3ccccc3)c2n1 [Example 51] |
| 17 nM | CCCCOC(=O)[C@H](C)NP(=O)(COCCn1cnc2c(OCC)nc(N)nc21)N[C@@H](C)C(=O)OCCCC [Example 38] |
| 9900 nM | CCCOc1nc(N)nc2c1ncn2CCOCP(=O)(N[C@H](C)C(=O)OC)N[C@H](C)C(=O)OC [Example 18] |
| 450 nM | CCCCOC(=O)[C@@H]1CCCN1P(=O)(COCCn1cnc2c(OCCC)nc(N)nc21)N1CCC[C@H]1C(=O)OCCCC [Example 25] |

system: Hs-578; assay: Cytostatic cell culture assay (GI50), SRB; assay type: cell-based; settings: 5 days incubation
Description: as §1, §2, §3, §4

| Structure (SMILES) | GI50 |
| --- | --- |
| CCCCOC(=O)[C@H](C)NP(=O)(COCCn1cnc2c(OCCC)nc(N)nc21)Oc1ccccc1 (single isomer, unassigned) [Example 52a] | 13 nM |

same assay, conditions: Hs578, 120 h; 5 days incubation

| Structure (SMILES) | GI50 |
| --- | --- |
| Nc1nc(NC2CC2)c2ncn(CCOCP(=O)(N3CCC[C@H]3C(=O)OCc3ccccc3)N3CCC[C@H]3C(=O)OCc3ccccc3)c2n1 [Example 51] | 96 nM |
| CCCCOC(=O)[C@H](C)NP(=O)(COCCn1cnc2c(OCC)nc(N)nc21)N[C@@H](C)C(=O)OCCCC [Example 38] | 20 nM |
| CCCOc1nc(N)nc2c1ncn2CCOCP(=O)(N[C@H](C)C(=O)OC)N[C@H](C)C(=O)OC [Example 18] | 9100 nM |
| CCCCOC(=O)[C@@H]1CCCN1P(=O)(COCCn1cnc2c(OCCC)nc(N)nc21)N1CCC[C@H]1C(=O)OCCCC [Example 25] | 8 nM |

system: Du-145; assay: Cytostatic cell culture assay (GI50), SRB; assay type: cell-based; settings: Homo sapiens, DU-145, 120 h; 5 days incubation
Description: as §1, §2, §3, §4

| GI50 | Structure (SMILES) |
| --- | --- |
| 256 nM | Nc1nc(NC2CC2)c2ncn(CCOCP(=O)(N3CCC[C@H]3C(=O)OCc3ccccc3)N3CCC[C@H]3C(=O)OCc3ccccc3)c2n1 [Example 51] |
| 1 nM | CCCCOC(=O)[C@H](C)NP(=O)(COCCn1cnc2c(OCC)nc(N)nc21)N[C@@H](C)C(=O)OCCCC [Example 38] |
| 1280 nM | CCCOc1nc(N)nc2c1ncn2CCOCP(=O)(N[C@H](C)C(=O)OC)N[C@H](C)C(=O)OC [Example 18] |
| 2 nM | CCCCOC(=O)[C@@H]1CCCN1P(=O)(COCCn1cnc2c(OCCC)nc(N)nc21)N1CCC[C@H]1C(=O)OCCCC [Example 25] |

| Structure (SMILES) | GI50 |
| --- | --- |
| CCCCOC(=O)[C@H](C)NP(=O)(COCCn1cnc2c(OCCC)nc(N)nc21)Oc1ccccc1 (single isomer, unassigned) [Example 52a] | 0.3 nM |
